Measurements as given in ChEMBL document CHEMBL1201862, “PubChem BioAssay data set” (2004).
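Test compounds were applied to cells in 96-well plates for 48 hours at 5 doses. At the GI50, growth is halved.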 Calls of active or inactive are those of the source. Rule as the data show it: active = GI50 up to about 1.1 µM and inactive = higher.

Tests used:
Test in all cases: NCI anticancer screen, dose series, 48 h
RXF 393 = tested on: RXF 393
LOX IMVI = tested on: LOX IMVI
IGROV-1 = tested on: IGROV-1
OVCAR-3 = tested on: OVCAR-3
T47D = tested on: T47D
RPMI-8226 = tested on: RPMI-8226
MOLT-4 = tested on: MOLT-4
Hs-578T = tested on: Hs-578T
CCRF-CEM = tested on: CCRF-CEM
COLO 205 = tested on: COLO 205
M14 = tested on: M14
SK-MEL-28 = tested on: SK-MEL-28
OVCAR-8 = tested on: OVCAR-8
A549 = tested on: A549
SNB-75 = tested on: SNB-75
HCT-116 = tested on: HCT-116
HCT-15 = tested on: HCT-15
A498 = tested on: A498
MDA-MB-435 = tested on: MDA-MB-435
MDA-MB-231 = tested on: MDA-MB-231
HL-60 = tested on: HL-60
HOP-92 = tested on: HOP-92
SN12C = tested on: SN12C
HT-29 = tested on: HT-29
NCI-H23 = tested on: NCI-H23
MDA-N = tested on: MDA-N
HOP-62 = tested on: HOP-62
SK-OV-3 = tested on: SK-OV-3
OVCAR-5 = tested on: OVCAR-5
SR = tested on: SR
BT-549 = tested on: BT-549
U-251 = tested on: U-251
NCI-H460 = tested on: NCI-H460
SF-268 = tested on: SF-268
SF-295 = tested on: SF-295
NCI-H226 = tested on: NCI-H226
ACHN = tested on: ACHN
EKVX = tested on: EKVX
TK-10 = tested on: TK-10
UACC-257 = tested on: UACC-257
NCI/ADR-RES = tested on: NCI/ADR-RES
CAKI-1 = tested on: CAKI-1
UO-31 = tested on: UO-31
OVCAR-4 = tested on: OVCAR-4
UACC-62 = tested on: UACC-62
SNB-19 = tested on: SNB-19
DU-145 = tested on: DU-145
KM12 = tested on: KM12
PC-3 = tested on: PC-3
HCC 2998 = tested on: HCC 2998
SK-MEL-5 = tested on: SK-MEL-5
786-0 = tested on: 786-0
SK-MEL-2 = tested on: SK-MEL-2
K562 = tested on: K562
SW-620 = tested on: SW-620
SF-539 = tested on: SF-539
Malme-3M = tested on: Malme-3M
MCF7 = tested on: MCF7
NCI-H522 = tested on: NCI-H522

## Cc1cc2c(c(/C=N/c3ccccc3O)c1)OC1(C=C2)Oc2ccccc2C(=O)N1C (stereo unspecified)
RXF 393
  GI50: 13 µM (inactive)
LOX IMVI
  GI50: 12.8 µM (inactive)
IGROV-1
  GI50: 21.5 µM (inactive)
OVCAR-3
  GI50: 12.8 µM (inactive)
T47D
  GI50: 1.57 µM (inactive)
RPMI-8226
  GI50: 21.2 µM (inactive)
MOLT-4
  GI50: 13.5 µM (inactive)
Hs-578T
  GI50: 11.6 µM (inactive)
CCRF-CEM
  GI50: 17.1 µM (inactive)
COLO 205
  GI50: 22.9 µM (inactive)
M14
  GI50: 15.5 µM (inactive)
SK-MEL-28
  GI50: 18.3 µM (inactive)
OVCAR-8
  GI50: 17.7 µM (inactive)
A549
  GI50: 21.7 µM (inactive)
SNB-75
  GI50: 18.6 µM (inactive)
HCT-116
  GI50: 14.3 µM (inactive)
HCT-15
  GI50: 15.9 µM
A498
  GI50: 18.6 µM (inactive)
MDA-MB-435
  GI50: 22.6 µM (inactive)
MDA-MB-231
  GI50: 16.3 µM (inactive)
HL-60
  GI50: 27 µM (inactive)
HOP-92
  GI50: 11.8 µM (inactive)
SN12C
  GI50: 20.9 µM (inactive)
HT-29
  GI50: 16.6 µM (inactive)
NCI-H23
  GI50: 17.8 µM (inactive)
MDA-N
  GI50: 28.2 µM (inactive)
HOP-62
  GI50: 18.8 µM (inactive)
SK-OV-3
  GI50: 24.4 µM (inactive)
OVCAR-5
  GI50: 13.2 µM (inactive)
SR
  GI50: 15.8 µM (inactive)
BT-549
  GI50: 18.7 µM (inactive)
U-251
  GI50: 18.2 µM (inactive)
NCI-H460
  GI50: 16.7 µM (inactive)
SF-268
  GI50: 14.4 µM (inactive)
SF-295
  GI50: 24.7 µM (inactive)
NCI-H226
  GI50: 15.4 µM (inactive)
ACHN
  GI50: 14.2 µM (inactive)
EKVX
  GI50: 14 µM (inactive)
TK-10
  GI50: 16.8 µM (inactive)
UACC-257
  GI50: 14.1 µM (inactive)
NCI/ADR-RES
  GI50: 17.3 µM (inactive)
CAKI-1
  GI50: 13.3 µM (inactive)
UO-31
  GI50: 10.6 µM (inactive)
OVCAR-4
  GI50: 23.1 µM (inactive)
UACC-62
  GI50: 17.8 µM (inactive)
SNB-19
  GI50: 24.7 µM (inactive)
DU-145
  GI50: 14.9 µM (inactive)
KM12
  GI50: 20.8 µM (inactive)
PC-3
  GI50: 17.4 µM (inactive)
HCC 2998
  GI50: 15.8 µM (inactive)
SK-MEL-5
  GI50: 15.2 µM (inactive)
786-0
  GI50: 14.4 µM (inactive)
SK-MEL-2
  GI50: 19.5 µM (inactive)
K562
  GI50: 12.3 µM (inactive)
SW-620
  GI50: 22.3 µM (inactive)

## O=C1C(=Cc2ccccc2O)N=C(c2ccccc2)N1n1c(-c2ccccc2)nc2ccccc2c1=O
LOX IMVI
  GI50: 41.7 µM (inactive)
SF-539
  GI50: 21.8 µM (inactive)
IGROV-1
  GI50: 34.4 µM (inactive)
T47D
  GI50: 26.2 µM (inactive)
RPMI-8226
  GI50: 38.6 µM (inactive)
MOLT-4
  GI50: 26.7 µM (inactive)
Hs-578T
  GI50: 35.6 µM (inactive)
CCRF-CEM
  GI50: 28.4 µM (inactive)
COLO 205
  GI50: 35.7 µM (inactive)
M14
  GI50: 19.3 µM (inactive)
SK-MEL-28
  GI50: 33.8 µM (inactive)
OVCAR-8
  GI50: 31.3 µM (inactive)
A549
  GI50: 33.6 µM (inactive)
SNB-75
  GI50: 23.4 µM (inactive)
HCT-116
  GI50: 32.3 µM (inactive)
HCT-15
  GI50: 40.4 µM
A498
  GI50: 21.5 µM (inactive)
MDA-MB-435
  GI50: 36.8 µM (inactive)
MDA-MB-231
  GI50: 42.2 µM (inactive)
HL-60
  GI50: 15.2 µM (inactive)
Malme-3M
  GI50: 45.7 µM (inactive)
SN12C
  GI50: 43 µM (inactive)
HT-29
  GI50: 37.2 µM (inactive)
NCI-H23
  GI50: 35.4 µM (inactive)
MDA-N
  GI50: 32.4 µM (inactive)
HOP-62
  GI50: 31.3 µM (inactive)
SK-OV-3
  GI50: 48.3 µM (inactive)
SR
  GI50: 32.9 µM (inactive)
MCF7
  GI50: 17.2 µM (inactive)
BT-549
  GI50: 28.8 µM (inactive)
NCI-H460
  GI50: 29.8 µM (inactive)
SF-268
  GI50: 21.3 µM (inactive)
SF-295
  GI50: 22.8 µM (inactive)
NCI-H226
  GI50: 31.6 µM (inactive)
ACHN
  GI50: 29.5 µM (inactive)
EKVX
  GI50: 30.6 µM (inactive)
TK-10
  GI50: 50.2 µM (inactive)
UACC-257
  GI50: 29.9 µM (inactive)
CAKI-1
  GI50: 25.8 µM (inactive)
UO-31
  GI50: 27.5 µM (inactive)
NCI-H522
  GI50: 33.1 µM (inactive)
UACC-62
  GI50: 33.7 µM (inactive)
SNB-19
  GI50: 48 µM (inactive)
DU-145
  GI50: 35.5 µM (inactive)
KM12
  GI50: 30.3 µM (inactive)
PC-3
  GI50: 34 µM (inactive)
HCC 2998
  GI50: 30.7 µM (inactive)
SK-MEL-5
  GI50: 19.1 µM (inactive)
786-0
  GI50: 42.1 µM (inactive)
K562
  GI50: 29.6 µM (inactive)
SW-620
  GI50: 45.8 µM (inactive)
